The values below come from ChEMBL document CHEMBL1629708, “Discovery of dihydrothieno- and dihydrofuropyrimidines as potent pan Akt inhibitors” (Bioorg Med Chem Lett, 2010).

In general, IC50 refers to the concentration needed to halve the response being measured. For orientation: inhibition means the share of the control response that was lost under treatment. A word on the inhibition in vivo: it is the share of the control response that was lost under treatment. As usually defined, the AUC is concentration integrated over time. What is called bioavailability is dose-corrected exposure relative to a reference, in per cent. For orientation: clearance means the rate of elimination divided by the concentration.

Data set [1] can be described thus: Ratio of IC50 for Akt1 to IC50 for Akt2.
For data set [2], the target named is T1, RAC-alpha serine/threonine-protein kinase (Homo sapiens, UniProt P31749). Put plainly: Inhibition of Akt in human LNCaP cell assessed as inhibition of PRAS40 phosphorylation. The class given is cell-based.
T1 sequence (P31749 whole entry): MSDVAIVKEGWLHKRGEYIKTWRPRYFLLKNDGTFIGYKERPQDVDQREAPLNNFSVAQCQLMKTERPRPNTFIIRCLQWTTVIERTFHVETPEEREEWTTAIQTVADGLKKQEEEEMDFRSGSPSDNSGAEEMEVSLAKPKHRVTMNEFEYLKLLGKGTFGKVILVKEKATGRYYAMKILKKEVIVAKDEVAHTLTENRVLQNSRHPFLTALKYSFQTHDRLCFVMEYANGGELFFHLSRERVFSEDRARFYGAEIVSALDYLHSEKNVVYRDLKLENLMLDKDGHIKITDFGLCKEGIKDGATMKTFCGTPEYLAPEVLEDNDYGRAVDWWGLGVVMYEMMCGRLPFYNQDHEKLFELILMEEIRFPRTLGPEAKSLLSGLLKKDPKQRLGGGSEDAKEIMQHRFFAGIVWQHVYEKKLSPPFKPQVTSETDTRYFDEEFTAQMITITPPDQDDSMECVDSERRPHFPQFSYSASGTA
In data set [3] the target is T1, RAC-alpha serine/threonine-protein kinase. Briefly: Inhibition of Akt1.
Data set [4] in a line: Inhibition of PKA.
Data set [5] is described as follows: Inhibition of PKA at 1 uM.
Data set [6] concerns the target Protein kinase C eta type (Homo sapiens) (UniProt P24723). Put plainly: Inhibition of PKCeta at 1 uM.
The target of data set [7] is Ribosomal protein S6 kinase beta-1 (Homo sapiens) (UniProt P23443). Put plainly: Inhibition of p70S6K at 1 uM.
Chain of Ribosomal protein S6 kinase beta-1 (Homo sapiens) (P23443 whole entry, looked up): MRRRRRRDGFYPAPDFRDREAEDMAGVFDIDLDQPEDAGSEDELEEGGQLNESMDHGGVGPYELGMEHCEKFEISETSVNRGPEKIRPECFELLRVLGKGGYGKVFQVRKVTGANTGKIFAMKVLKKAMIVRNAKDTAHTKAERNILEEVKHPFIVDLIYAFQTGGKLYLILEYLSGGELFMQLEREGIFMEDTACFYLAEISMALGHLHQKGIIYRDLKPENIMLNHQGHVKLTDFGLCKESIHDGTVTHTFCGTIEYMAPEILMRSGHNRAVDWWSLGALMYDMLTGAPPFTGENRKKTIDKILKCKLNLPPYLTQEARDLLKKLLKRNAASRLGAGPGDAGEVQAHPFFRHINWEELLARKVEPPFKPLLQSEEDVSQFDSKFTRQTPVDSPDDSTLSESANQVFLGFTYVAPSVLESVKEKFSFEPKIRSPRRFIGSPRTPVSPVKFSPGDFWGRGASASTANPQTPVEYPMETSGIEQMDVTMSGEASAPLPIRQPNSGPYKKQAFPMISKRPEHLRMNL
The nature of data set [8]: Inhibition of PRAS40 phosphorylation in human U87 cells xenografted in mouse at 50 mg/kg, po after 1 hr. The data set is classed as functional, U-87MG ATCC. The conditions noted are these: U-87 MG. For orientation: A xenograft is tissue or cells of one species grown in another, often human tumour cells in immunodeficient mice.
Data set [9] concerns Plasma. Put plainly: Increase in plasma drug level in nude mouse xenografted with human U87 cells at 50 to 100 mg/kg, po after 1 hr. The class given is ADME, organism-based, U-87MG ATCC. Also noted: dose 50-100 mg/kg, route oral. The note with it: in vivo.
Data set [10] in a line: Inhibition of PRAS40 phosphorylation in human U87 cells xenografted in mouse at 200 mg/kg, po after 4 hrs. The class given is functional, U-87MG ATCC. The conditions noted are these: U-87 MG.
In data set [11] the test system is Plasma. Put plainly: Increase in plasma drug level in nude mouse xenografted with human U87 cells at 200 mg/kg, po after 4 hrs. The class given is ADME, organism-based, U-87MG ATCC. Also noted: dose 200 mg/kg, route oral. The conditions noted are these: in vivo.
A short description of data set [12]: Inhibition of PRAS40 phosphorylation in human U87 cells xenografted in mouse at 50 mg/kg, po after 4 hr. The class given is functional, U-87MG ATCC. The conditions noted are these: U-87 MG.
A short description of data set [13]: Inhibition of PRAS40 phosphorylation in human U87 cells xenografted in mouse at 200 mg/kg, po after 12 hrs. The conditions noted are these: U-87 MG. The class given is functional, U-87MG ATCC.
For data set [14], the system named is PC-3. Briefly: Antitumor activity against human PC3 prostate tumor cell xenografted in nude mouse assessed as inhibition of tumor growth at 50 mg/kg, po qd for 14 days. The class given is functional. Also noted: scale not given: the % may be the effect or the level left.
Data set [15] can be described thus: Plasma protein binding in rat. The class given is ADME, cell-free. The note with it: read-out: PPB (converted).
Data set [16] deals with PC-3. Put plainly: Antitumor activity against human PC3 prostate tumor cell xenografted in nude mouse assessed as inhibition of tumor growth at 25 mg/kg, po qd for 14 days. The class given is functional. Also noted: scale not given: the % may be the effect or the level left.
Data set [17] deals with Plasma. Put plainly: Increase in plasma drug level in nude mouse xenografted with human U87 cells at 50 to 100 mg/kg, po after 4 hrs. The data set is classed as ADME, organism-based, U-87MG ATCC. Also noted: dose 50-100 mg/kg, route oral. The note with it: in vivo.
A short description of data set [18]: Plasma concentration in rat at 50 mg/kg, po. The data set is classed as ADME, organism-based. Also noted: dose 50 mg/kg, route oral.
The nature of data set [19]: Bioavailability in rat at 50 mg/kg, po. The note with it: in vivo. The class given is ADME, organism-based.
Data set [20] has as its system Plasma. Put plainly: Increase in plasma drug level in nude mouse xenografted with human U87 cells at 200 mg/kg, po after 1 hr. The class given is ADME, organism-based, U-87MG ATCC. The note with it: in vivo. Also noted: dose 200 mg/kg, route oral.
Data set [21] is described as follows: Clearance in rat at 5 mg/kg, iv. The data set is classed as ADME, organism-based. Also noted: dose 5 mg/kg, route intravenous. The conditions noted are these: in vivo.
In data set [22] the test system is PC-3. Briefly: Antitumor activity against human PC3 prostate tumor cell xenografted in nude mouse assessed as inhibition of tumor growth at 100 mg/kg, po qd for 14 days. The class given is functional. The conditions noted are these: PC-3, 336 h.
In data set [23] the test system is PC-3. Put plainly: Antitumor activity against human PC3 prostate tumor cell xenografted in nude mouse assessed as inhibition of tumor growth at 200 mg/kg, po qd for 14 days. The data set is classed as functional. Also noted: scale not given: the % may be the effect or the level left.
Data set [24] can be described thus: Ratio of IC50 for Akt1 to IC50 for Akt3.

Chain of Protein kinase C eta type (Homo sapiens) (P24723 whole entry): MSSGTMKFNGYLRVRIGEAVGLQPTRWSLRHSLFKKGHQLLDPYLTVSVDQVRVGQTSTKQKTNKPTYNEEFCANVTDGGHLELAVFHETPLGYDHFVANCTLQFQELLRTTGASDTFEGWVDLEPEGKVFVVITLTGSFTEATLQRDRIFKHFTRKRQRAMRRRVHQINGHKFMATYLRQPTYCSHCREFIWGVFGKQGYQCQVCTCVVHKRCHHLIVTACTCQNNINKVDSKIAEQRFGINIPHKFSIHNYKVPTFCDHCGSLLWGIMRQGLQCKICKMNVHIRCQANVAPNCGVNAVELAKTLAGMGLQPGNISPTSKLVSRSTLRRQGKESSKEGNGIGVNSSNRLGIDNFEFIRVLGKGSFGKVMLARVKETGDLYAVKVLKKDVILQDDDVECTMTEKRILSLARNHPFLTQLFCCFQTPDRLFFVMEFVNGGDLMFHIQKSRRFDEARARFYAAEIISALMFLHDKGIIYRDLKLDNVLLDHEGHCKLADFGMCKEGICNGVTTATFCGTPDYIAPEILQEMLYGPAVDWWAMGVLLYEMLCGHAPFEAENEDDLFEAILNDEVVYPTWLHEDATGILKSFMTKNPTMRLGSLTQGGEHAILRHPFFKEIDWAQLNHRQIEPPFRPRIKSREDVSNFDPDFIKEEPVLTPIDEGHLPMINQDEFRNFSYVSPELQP

Consider `CC(C)NCC(C(=O)N1CCN(c2ncnc3c2C(C)SC3)CC1)c1ccc(Cl)cc1` (stereo unspecified), for which, in [1], the Ratio IC50 came to 5.

In the case of `CC1SCc2ncnc(N3CCN(C(=O)[C@H](N)Cc4ccc(Cl)cc4)CC3)c21` (stereo partly specified), the IC50 in data set [2] was determined as 310 nM; in data set [3] it was 4 nM; in [4], 31 nM.

For `C[C@@H]1OCc2ncnc(N3CCN(C(=O)[C@H](N)Cc4ccc(Cl)cc4)CC3)c21`, the half-inhibitory concentration (IC50) in data set [2] amounted to 615 nM; in data set [3] it was 7 nM; in [4] it was 61 nM.

As for `C[C@@H]1SCc2ncnc(N3CCN(C(=O)[C@H](N)Cc4c[nH]c5ccccc45)CC3)c21`, the half-maximal inhibitory concentration (IC50) in data set [2] stood at 3630 nM.

Turning to `C[C@@H]1SCc2ncnc(N3CCN(C(=O)C(Cc4ccc(Cl)cc4)CN4CCCC4)CC3)c21` (stereo partly specified), the IC50 in [2] was determined as 178 nM; in data set [3], 3 nM; in data set [4] it was 75 nM.

Take `C[C@@H]1SCc2ncnc(N3CCN(C(=O)C(Cc4ccc(Cl)cc4)C4(N)CC4)CC3)c21` (stereo partly specified): the IC50 in data set [2] is 2470 nM; in data set [3], 42 nM; in data set [4] it was 308 nM.

For `C[C@@H]1SCc2ncnc(N3CCN(C(=O)[C@H](N)Cc4ccc(F)c(F)c4)CC3)c21`, the figures for the IC50 in data set [2], in [3] and in data set [4] were 602 nM, 4 nM and 30 nM, respectively.

As for `Cc1c[nH]c2ncnc(N3CCN(C(=O)[C@H](N)Cc4ccc(F)cc4)CC3)c12`, the IC50 in data set [2] is 160 nM; in data set [4], 6 nM.

As for `CC(C)NC[C@H](Cc1ccc(Cl)cc1)C(=O)N1CCN(c2ncnc3c2[C@H](C)OC3)CC1`, the inhibition in [5], in data set [6] and in data set [7] was above 50% each time. The IC50 in data set [2] came out at 125 nM; in [3], 3 nM; in data set [4] it was 52 nM.

`C[C@@H]1SCc2ncnc(N3CCN(C(=O)C(Cc4ccc(Cl)c(F)c4)CC(C)(C)N)CC3)c21` (stereo partly specified): the IC50 in data set [2] was 587 nM; in [3], 7 nM; in [4], 63 nM.

For the compound `CC(C)NC[C@@H](Cc1ccc(Cl)cc1)C(=O)N1CCN(c2ncnc3c2[C@H](C)SC3)CC1`, the IC50 in data set [3] turned out to be 127 nM; in [4], 5620 nM.

As for `CC(C)NC[C@H](Cc1ccc(Cl)cc1)C(=O)N1CCN(c2ncnc3c2[C@H](C)SC3)CC1`, the values for the inhibition in vivo at 50 mg/kg in [8] and in data set [12] were 85% and 60%, respectively. Also, the Activity entry is “Active” in data set [9]; “Active” in [11]; 42% in data set [14]; 15% in [16]; “Active” in [17]; “Active” in data set [20]. The Activity in data set [23] was determined as 84%. Moreover, the values for the inhibition in vivo at 200 mg/kg in data set [10] and in [13] were 83% and 65%, respectively. For the same compound, the fraction unbound in data set [15] was 0.3. The area under the curve (AUC) in data set [18] worked out at 56200 ng·h/mL. The values for the IC50 in data set [2], in [3] and in data set [4] were 137 nM, 1 nM and 35 nM, respectively. Also, the bioavailability in data set [19] is above 100%. The compound further registered a clearance in data set [21] of 94 mL/min/kg. Moreover, the inhibition in vivo at 100 mg/kg in data set [22] is 61%.

Consider `CC(C)NCC(Cc1ccc(Cl)cc1)C(=O)N1CCN(c2ncnc3c2[C@H](C)SC3)CC1` (stereo partly specified), for which the inhibition in data set [5], in [6] and in data set [7] was above 50% throughout. Also, the IC50 in [2] amounted to 159 nM; in [3], 3 nM; in data set [4], 80 nM.

In the case of `Cc1ccc(CC(CNC(C)C)C(=O)N2CCN(c3ncnc4c3[C@H](C)SC4)CC2)cc1` (stereo partly specified), the IC50 in data set [2] amounted to 216 nM; in [3], 3 nM; in data set [4], 101 nM.

Consider `CC(C)NCC(Cc1ccc(Cl)c(F)c1)C(=O)N1CCN(c2ncnc3c2[C@H](C)SC3)CC1` (stereo partly specified), for which the half-inhibitory concentration (IC50) in data set [2] stood at 92 nM; in [3], 2 nM; in data set [4], 30 nM.

Turning to `N[C@H](Cc1ccc(Cl)cc1)C(=O)N1CCN(c2ncnc3c2CSC3)CC1`, the half-maximal inhibitory concentration (IC50) in [2] was 3850 nM; in data set [3], 22 nM; in data set [4], 223 nM.

With `C[C@@H]1SCc2ncnc(N3CCN(C(=O)C(Cc4ccc(Cl)c(F)c4)CC4(N)CC4)CC3)c21` (stereo partly specified), the half-inhibitory concentration (IC50) in data set [2] was 250 nM; in [3] it was 3 nM; in [4] it was 30 nM.

Consider `Cc1ccc(CC(CNC(C)C)C(=O)N2CCN(c3ncnc4c3[C@H](C)OC4)CC2)cc1` (stereo partly specified), for which the values for the IC50 in [2], in [3] and in [4] were 995 nM, 16 nM and 315 nM, respectively.

As to `C[C@@H]1SCc2ncnc(N3CCN(C(=O)[C@H](N)Cc4ccc(Cl)cc4)CC3)c21`, the half-maximal inhibitory concentration (IC50) in data set [2] came to 184 nM; in data set [3], 1 nM; in data set [4], 13 nM.

As for `CCC1SCc2ncnc(N3CCN(C(=O)[C@H](N)Cc4ccc(Cl)cc4)CC3)c21` (stereo partly specified), the 50% inhibitory concentration (IC50) in data set [2] turned out to be 1200 nM; in data set [3], 7 nM; in data set [4] it was 52 nM.

For `C[C@@H]1SCc2ncnc(N3CCN(C(=O)[C@H](N)Cc4ccc(F)cc4)CC3)c21`, the concentration for half-maximal inhibition (IC50) in data set [2] worked out at 1590 nM; in data set [3], 11 nM; in data set [4], 104 nM.

As for `N[C@H](Cc1ccc(Cl)cc1)C(=O)N1CCN(c2ncnc3c2CS(=O)(=O)C3)CC1`, the IC50 was determined as 21000 nM in [2], 52 nM in data set [3] and 1300 nM in [4].

For `C[C@@H]1OCc2ncnc(N3CCN(C(=O)C(Cc4ccc(Cl)c(F)c4)CC(C)(C)N)CC3)c21` (stereo partly specified), the IC50 in data set [2] amounted to 592 nM; in [3], 18 nM; in data set [4], 91 nM.

On to `C[C@@H]1SCc2ncnc(N3CCN(C(=O)C(Cc4ccc(Cl)cc4)CC(C)(C)N)CC3)c21` (stereo partly specified), for which the IC50 in data set [2] came to 438 nM; in data set [3], 6 nM; in data set [4] it was 73 nM.

`CC(C)NCC(Cc1ccc(F)c(F)c1)C(=O)N1CCN(c2ncnc3c2[C@H](C)SC3)CC1` (stereo partly specified): the IC50 was found to be 759 nM in data set [2], 10 nM in data set [3] and 285 nM in data set [4].

In the case of `CC(C)NCC(Cc1ccc(Cl)c(F)c1)C(=O)N1CCN(c2ncnc3c2[C@H](C)OC3)CC1` (stereo partly specified), the IC50 in [2] stood at 315 nM; in [3], 6 nM; in data set [4], 88 nM.

With `CC(C)NCC(C(=O)N1CCN(c2ncnc3c2C(C)OC3)CC1)c1ccc(Cl)cc1` (stereo unspecified), the Ratio IC50 in data set [24] was determined as 3.

Regarding `C[C@@H]1SCc2ncnc(N3CCN(C(=O)[C@H](N)Cc4ccc(Cl)c(F)c4)CC3)c21`, the IC50 came out at 176 nM in data set [2], 2 nM in [3] and 8 nM in data set [4].

Turning to `C[C@H]1SCc2ncnc(N3CCN(C(=O)[C@H](N)Cc4ccc(Cl)cc4)CC3)c21`, the IC50 stood at 18500 nM in [2], 260 nM in [3] and 1710 nM in data set [4].
